Source: patent publication US20250381157A1, “ANTIMICROBIAL COMPOUNDS” (priority 2022, published 2025)
Read-outs that look alike come from different tables or passages of the source.

Assays:
[1] = system: CAMP gene (encoding human cathelicidin); test: Induction test: ProLL-37-luciferase fusion protein expression in HT-29 CampLuc MN8 reporter cell line; type: cell-based; conditions: after 24h; luminescence relative to untreated cells
Method: FIG. 2: Induction test. […] Statistical analysis was performed by comparison of each compound-treatment conditions to the corresponding vehicle control using two-way ANOVA with Dunnett post-hoc test. Only significant changes were indicated, ** p<0.01, *** p<0.001, **** p<0.0001.
MN8CampLuc cells were handled according to Nylén et. al. with the following exception when predifferention of cells were performed before induction: […]

Caco-2 cells = test: Caco-2 cell study (permeability, efflux); type: in vitro ADME; conditions: for Active efflux: Caco-2
Excerpt: Caco-2 cells are used as a model of the intestinal epithelial barrier.

in vivo = conditions: mouse, po, 7 Days PO once daily MTD - mouse
Plasma stability Mouse = type: in vitro ADME
[2] = Rat pharmacokinetics (IV, PO); type: in vivo; conditions: for half-life / bioavailability: in vivo; for bioavailability: oral
Plasma stability Rat = type: in vitro ADME
[3] = Stability SGD, SIF w. Enzymes; type: in vitro ADME
[4] = Dose escalation toxicity and MTD in mouse
[5] = system: Enterotoxigenic Escherichia coli (ETEC) (ATCC ® 35401 ™, H10407); type: in vivo, mouse; conditions: for Clinical observation (Mean Score) Hunched Posture / Clinical observation (Mean Score) Rough coat / Clinical observation (Mean Score) hyperpnea: 1 mg/kg PO q12h 9 days, 0=absent 1=present
Method: FIG. 3: Schematic protocol for neutropenia mouse model
A schematic of the experimental model is depicted in FIG. 3.
That experiment was performed in the presence of cyclophosphamide, which is known to cause febrile neutropenia due to translocation of bacteria to vital organs.

[6] = PO, read-out: Elimination T½ (min) PO - rat
[7] = intravenous, PIV, read-out: Elimination T½ (min) PIV - rat
[8] = 1 mg/kg, PO, twice daily(q12h), 9 days
[9] = individual animals, 1 mg/kg, PO, twice daily(q12h), 9 days

CCC(=O)NCCOCC(=O)N(C)Cc1ccc(C(=O)Nc2ccccc2N)cc1 [Compound 2.2, N-(2-aminophenyl)-4-{[N-methyl-2-(2-propanamidoethoxy)acetamido]methyl}benzamide]
expression of ProLL-37-luciferase fusion protein [1]: induced expression

Nc1ccccc1NC(=O)c1ccc(NC(=O)COCc2cn(CCO)nn2)cc1 [HO53]
Caco-2 Permeability A-B dir. (Caco-2 cells): Low | Active efflux (Caco-2 cells): Yes | MTD at 7 days (in vivo): > 50 mg/kg | Plasma stability Mouse (Plasma stability Mouse): Low | C_max IV - rat [2]: 21 µM | V-d IV - rat [2]: 1.7 L/kg | C_max PO - rat ([2]; PO): 0.09 µM | half-life [2, 6]: 35 min | half-life [2, 7]: 126 min | bioavailability [2]: 3% | Plasma stability Rat (Plasma stability Rat): High | Stability SGD, SIF w. Enzymes [3]: High | Dose Esc. Tox mouse PO [4]: >100 mg/kg | Dose Esc. Tox mouse iv [4]: >100 mg/kg

C#CCOCC(=O)N(C)Cc1ccc(C(=O)Nc2ccccc2N)cc1 [Compound 2.1, N-(2-aminophenyl)-4-[(methyl{[(prop-2-yn-1-yl)oxy]acetyl}amino)methyl]benzamide]
expression of ProLL-37-luciferase fusion protein [1]: induced expression

Nc1ccccc1NC(=O)c1ccc(CNC(=O)OCc2cccnc2)cc1 [Entinostat, Pyridin-3-ylmethyl (4-((2-aminophenyl)-carbamoyl)benzyl)carbamate, reference compound]
Body weights (Final Day) (Mean ± SD) [5, 8]: 26.5 ± 1.58 | Log10 CFU/g [Mean ± SD] Blood [5, 8]: BLOQ | Log10 CFU/g [Mean ± SD] Kidneys [5, 8]: BLOQ | Log10 CFU/g [Mean ± SD] Liver [5, 8]: BLOQ | Log10 CFU/g [Mean ± SD] Spleen [5, 8]: BLOQ | Clinical observation (Mean Score) Hunched Posture ([5]; Day (0)): 0.0 | Clinical observation (Mean Score) Rough coat ([5]; Day (0)): 0.0 | Clinical observation (Mean Score) hyperpnea ([5]; Day (0)): 0.0 | Clinical observation (Mean Score) Hunched Posture ([5]; Day (1)): 0.0 | Clinical observation (Mean Score) Rough coat ([5]; Day (1)): 0.0 | Clinical observation (Mean Score) hyperpnea ([5]; Day (1)): 0.0 | Clinical observation (Mean Score) Hunched Posture ([5]; Day (2)): 0.0 | Clinical observation (Mean Score) Rough coat ([5]; Day (2)): 0.0 | Clinical observation (Mean Score) hyperpnea ([5]; Day (2)): 0.0 | Clinical observation (Mean Score) Hunched Posture ([5]; Day (3)): 0.0 | Clinical observation (Mean Score) Rough coat ([5]; Day (3)): 0.0 | Clinical observation (Mean Score) hyperpnea ([5]; Day (3)): 0.0 | Clinical observation (Mean Score) Hunched Posture ([5]; Day (4)): 0.0 | Clinical observation (Mean Score) Rough coat ([5]; Day (4)): 0.0 | Clinical observation (Mean Score) hyperpnea ([5]; Day (4)): 0.0 | Clinical observation (Mean Score) Hunched Posture ([5]; Day (5)): 0.0 | Clinical observation (Mean Score) Rough coat ([5]; Day (5)): 0.1 | Clinical observation (Mean Score) hyperpnea ([5]; Day (5)): 0.0 | Clinical observation (Mean Score) Hunched Posture ([5]; Day (6)): 0.0 | Clinical observation (Mean Score) Rough coat ([5]; Day (6)): 0.1 | Clinical observation (Mean Score) hyperpnea ([5]; Day (6)): 0.0 | Clinical observation (Mean Score) Hunched Posture ([5]; Day (7)): 0.0 | Clinical observation (Mean Score) Rough coat ([5]; Day (7)): 0.2 | Clinical observation (Mean Score) hyperpnea ([5]; Day (7)): 0.0 | Clinical observation (Mean Score) Hunched Posture ([5]; Day (−1)): 0.0 | Clinical observation (Mean Score) Rough coat ([5]; Day (−1)): 0.0 | Clinical observation (Mean Score) hyperpnea ([5]; Day (−1)): 0.0 | Clinical observation (Mean Score) Hunched Posture ([5]; Day (−2)): 0.0 | Clinical observation (Mean Score) Rough coat ([5]; Day (−2)): 0.0 | Clinical observation (Mean Score) hyperpnea ([5]; Day (−2)): 0.0 | Bacteria in treated animals ([5]; day 7, compound 1 at 50 mg/kg): BLOQ | Kidney -Raw data on Vancomycin (32 μg/ml) plates [5, 9]: BLOQ | Liver-Raw data on Vancomycin (32 μg/ml) plates [5, 9]: BLOQ | Spleen -Raw data on Vancomycin (32 μg/ml) plates [5, 9]: BLOQ | Blood -Raw data on Vancomycin (32 μg/ml) plates - on day 7 PI ([5]; individual animals, day 7 PI, 1 mg/kg, PO, twice daily(q12h), 9 days): BLOQ | clinical condition of animals ([5]; treated groups): apparently normal

Nc1ccccc1NC(=O)c1ccc(OCc2cn(CCO)nn2)cc1 [HO56]
Caco-2 Permeability A-B dir. (Caco-2 cells): Low | Active efflux (Caco-2 cells): Yes | MTD at 7 days (in vivo): > 50 mg/kg | Plasma stability Mouse (Plasma stability Mouse): High | C_max IV - rat [2]: 26 µM | V-d IV - rat [2]: 3.07 L/kg | C_max PO - rat ([2]; PO): 1.2 µM | half-life [2, 6]: 132 min | half-life [2, 7]: 94 min | bioavailability [2]: 16% | Plasma stability Rat (Plasma stability Rat): High | Stability SGD, SIF w. Enzymes [3]: High | Dose Esc. Tox mouse PO [4]: >200 mg/kg | Dose Esc. Tox mouse iv [4]: 10 mg/kg

C#CCCCC(=O)Oc1ccc(C(=O)Nc2ccccc2N)cc1 [Compound 2.3, 4-[(2-aminophenyl)carbamoyl]phenyl hex-5-ynoate]
expression of ProLL-37-luciferase fusion protein [1]: induced expression
